# Results reported in US10800791B2, “Triazole ACC inhibitors and uses thereof” (Gilead Apollo, LLC, priority 2015, dated 2020).
# Where two headings read alike, the source gives them in different places.
# Key:
# [1] = system: Phytophthora capsici (Pc); assay: Growth inhibition assay of fungal pathogens, Pc; format: cell-based; details: 48 h
# In short: (§1)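 Inhibition percentages reflect 48 h OD600 and visual scores relative to a 2% DMSO control. Test concentrations were 50, 10, 2 ppm or 2, 0.4, 0.08 ppm final, applied to spores in 17% V8 medium.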
# [2] = system: C. albicans; assay: Antifungal Activity Assay (broth microtiter MIC), C. albicans; format: cell-based, Candida albicans; details: Candida albicans, ATCC90028, 48 h
# In short: (§2)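 MIC read by eye at 48 h, comparing challenged wells with the growth control. Yeasts grown overnight on Sabouraud dextrose agar at 35° C, suspended in RPMI 1640+MOPS and added at 2.5×10^3 CFU/mL final, following CLSI M27-A3.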
# [3] = system: Fusarium virguliforme (Fv); assay: Growth inhibition assay of fungal pathogens, Fv; format: cell-based; details: 48 h
# In short: as §1
# [4] = biological target: human (hACC2) (Homo sapiens, UniProt O00763); assay: In vitro ACC inhibition assay (ADP-Glo), hACC2; format: biochemical; details: 5 nM ACC2, 20 μM ATP, 20 μM acetyl-CoA
# Method: The detailed procedure is as follows. […] 10 μL ADP glo reagent was added. […] 20 μL kinase detection reagent was added.
# [5] = system: C. krusei; assay: Antifungal Activity Assay (broth microtiter MIC), C. krusei; format: cell-based, Candida krusei; details: Pichia kudriavzevii, ATCC6258, 48 h
# In short: as §2
# [6] = biological target: fungal (fACC2) (UniProt Q00955); details: read-out: fACC2 (in vitro ACC2 Inhibition Assay, IC50), ADP-Glo, 5 nM ACC2, 20 μM ATP, 20 μM acetyl-CoA
# Method: An exemplary procedure for the in vitro ACC inhibition assay, which can be used to determine the inhibitory action of compounds of the invention toward either human (hACC2) or fungal (fACC2), follows. The ADP-Glo™ Kinase Assay kit from Promega was used. The ADP-Glo™ Kinase Assay is a luminescent ADP detection assay to measure enzymatic activity by quantifying the amount of ADP produced during an enzyme reaction. The assay is performed in two steps; first, after the enzyme reaction, an equal volume of ADP-Glo™ Reagent is added to terminate the reaction and deplete the remaining ATP. Second, the Kinase Detection Reagent is added to simultaneously convert ADP to ATP and allow the newly synthesized ATP to be measured using a luciferase/luciferin reaction. Luminescence can be correlated to ADP concentrations by using an ATP-to-ADP conversion curve. […] 50 μL of the compound being tested (600 μM in DMSO) was added to a 384-well dilution plate. The compound was diluted 1:3 in succession in DMSO for each row for 11 wells. 0.5 μL ACC2 working solution was added to 384-well white Optiplate assay plate. 0.5 μL diluted compound solution in each column from step 2 was added to assay plate, each row containing 2 replicates. […] The plates were incubated at room temperature for 15 minutes. 5 μL substrate working solution was added to each well to initiate reaction. Final ACC2 reaction concentrations consist of: 5 nM ACC2, 20 μM ATP, 20 μM acetyl-CoA, 12 mM NaHCO3, 0.01% Brij35, 2 mM DTT, 5% DMSO, test compound concentrations: 30 μM, 10 μM, 3.33 μM, 1.11 μM, 0.37 μM, 0.123 μM, 0.0411 μM, 0.0137 μM, 0.00457 μM, 0.00152 μM, and 0.00051 μM. Plates were incubated at room temperature for 60 minutes. 10 μL ADP glo reagent was added. Plates were incubated at room temperature for 40 minutes. 20 μL kinase detection reagent was added. Plates were incubated at room temperature for 40 minutes, and then read on a Perkin Elmer EnVision 2104 plate reader for luminescence as Relative Light Units (RLU).
# Data for each concentration, as well as the positive and negative controls were averaged, and the standard deviation calculated. Percent inhibition was calculated by the formula: 100×(average negative control−compound)/(average negative control−average positive control). The IC50 for each compound was calculated by fitting the data with a non-linear regression equation: Y=Bottom+(Top−Bottom)/(1+10 ((Log IC50−X)*HillSlope)), where X is the log of compound concentration and Y is percent inhibition.
# [7] = system: Rhizoctonia solani (Rs); assay: Growth inhibition assay of fungal pathogens, Rs; format: cell-based; details: 48 h
# [8] = system: C. parapsilosis; assay: Antifungal Activity Assay (broth microtiter MIC), C. parapsilosis; format: cell-based, Candida parapsilosis; details: Lodderomyces parapsilosis, ATCC22019, 48 h
# In short: as §2
# [9] = system: Fusarium moniliforme (Fm); assay: Growth inhibition assay of fungal pathogens, Fm; format: cell-based; details: Fusarium verticillioides, 48 h, read-out: Concentration at 90% Inhibition Fm
# In short: as §1
# [10] = system: Septoria tritici (St); assay: Growth inhibition assay of fungal pathogens, St; format: cell-based; details: Zymoseptoria tritici, 48 h, growth inhibition at 48 hours vs 2% DMSO control
# In short: as §1
# [11] = system: Diplodia maydis (Dm); assay: Growth inhibition assay of fungal pathogens, Dm; format: cell-based; details: Stenocarpella maydis, 48 h, growth inhibition at 48 hours vs 2% DMSO control
# In short: as §1
# [12] = system: Collectotrichum graminicola (Cg); assay: Growth inhibition assay of fungal pathogens, Cg; format: cell-based; details: 48 h, growth inhibition at 48 hours vs 2% DMSO control
# In short: as §1
# [13] = system: Botrtyis cinerea (Bc); assay: Growth inhibition assay of fungal pathogens, Bc; format: cell-based; details: 48 h, growth inhibition at 48 hours vs 2% DMSO control
# In short: as §1
# [14] = read-out: Concentration at 90% Inhibition Pc, Phytophthora capsici, growth inhibition at 48 hours vs 2% DMSO control
# [15] = read-out: MIC, C. albicans ATCC 90028, Table 3a, 3 replicates, MIC recorded at 48 h
# [16] = read-out: MIC, C. albicans ATCC 90028, Table 3b (additional results), 3 replicates, MIC recorded at 48 h
# [17] = read-out: Concentration at 90% Inhibition Fv, Fusarium virguliforme, growth inhibition at 48 hours vs 2% DMSO control
# [18] = read-out: MIC, C. krusei ATCC 6258, Table 3a, 3 replicates, MIC recorded at 48 h
# [19] = read-out: MIC, C. krusei ATCC 6258, Table 3b (additional results), 3 replicates, MIC recorded at 48 h
# [20] = read-out: Concentration at 90% Inhibition Rs, Rhizoctonia solani, mycelial plugs, growth inhibition at 48 hours vs 2% DMSO control
# [21] = read-out: MIC, C. parapsilosis ATCC 22019, Table 3a, 3 replicates, MIC recorded at 48 h
# [22] = read-out: MIC, C. parapsilosis ATCC 22019, Table 3b (additional results), 3 replicates, MIC recorded at 48 h
# [23] = read-out: Concentration at 90% Inhibition St, Septoria tritici
# [24] = read-out: Concentration at 90% Inhibition Dm, Diplodia maydis
# [25] = read-out: Concentration at 90% Inhibition Cg, Collectotrichum graminicola
# [26] = read-out: Concentration at 90% Inhibition Bc, Botrtyis cinerea
# [27] = growth inhibition at 48 hours vs 2% DMSO control, read-out: Concentration at 90% Inhibition Pc
# [28] = Table 3a, ATCC 90028, 3 replicates, MIC recorded at 48 h, read-out: MIC, C. albicans ATCC 90028
# [29] = Table 3b (additional results), ATCC 90028, 3 replicates, MIC recorded at 48 h, read-out: MIC, C. albicans ATCC 90028
# [30] = growth inhibition at 48 hours vs 2% DMSO control, read-out: Concentration at 90% Inhibition Fv
# [31] = Table 3a, ATCC 6258, 3 replicates, MIC recorded at 48 h, read-out: MIC, C. krusei ATCC 6258
# [32] = Table 3b (additional results), ATCC 6258, 3 replicates, MIC recorded at 48 h, read-out: MIC, C. krusei ATCC 6258
# [33] = mycelial plugs, growth inhibition at 48 hours vs 2% DMSO control, read-out: Concentration at 90% Inhibition Rs
# [34] = Table 3a, ATCC 22019, 3 replicates, MIC recorded at 48 h, read-out: MIC, C. parapsilosis ATCC 22019
# [35] = Table 3b (additional results), ATCC 22019, 3 replicates, MIC recorded at 48 h, read-out: MIC, C. parapsilosis ATCC 22019
# [36] = Fusarium moniliforme, growth inhibition at 48 hours vs 2% DMSO control
# [37] = Septoria tritici, read-out: Concentration at 90% Inhibition St
# [38] = Diplodia maydis, read-out: Concentration at 90% Inhibition Dm
# [39] = Collectotrichum graminicola, read-out: Concentration at 90% Inhibition Cg
# [40] = Botrtyis cinerea, read-out: Concentration at 90% Inhibition Bc
# fungal (fACC2), sequence (Q00955 whole entry): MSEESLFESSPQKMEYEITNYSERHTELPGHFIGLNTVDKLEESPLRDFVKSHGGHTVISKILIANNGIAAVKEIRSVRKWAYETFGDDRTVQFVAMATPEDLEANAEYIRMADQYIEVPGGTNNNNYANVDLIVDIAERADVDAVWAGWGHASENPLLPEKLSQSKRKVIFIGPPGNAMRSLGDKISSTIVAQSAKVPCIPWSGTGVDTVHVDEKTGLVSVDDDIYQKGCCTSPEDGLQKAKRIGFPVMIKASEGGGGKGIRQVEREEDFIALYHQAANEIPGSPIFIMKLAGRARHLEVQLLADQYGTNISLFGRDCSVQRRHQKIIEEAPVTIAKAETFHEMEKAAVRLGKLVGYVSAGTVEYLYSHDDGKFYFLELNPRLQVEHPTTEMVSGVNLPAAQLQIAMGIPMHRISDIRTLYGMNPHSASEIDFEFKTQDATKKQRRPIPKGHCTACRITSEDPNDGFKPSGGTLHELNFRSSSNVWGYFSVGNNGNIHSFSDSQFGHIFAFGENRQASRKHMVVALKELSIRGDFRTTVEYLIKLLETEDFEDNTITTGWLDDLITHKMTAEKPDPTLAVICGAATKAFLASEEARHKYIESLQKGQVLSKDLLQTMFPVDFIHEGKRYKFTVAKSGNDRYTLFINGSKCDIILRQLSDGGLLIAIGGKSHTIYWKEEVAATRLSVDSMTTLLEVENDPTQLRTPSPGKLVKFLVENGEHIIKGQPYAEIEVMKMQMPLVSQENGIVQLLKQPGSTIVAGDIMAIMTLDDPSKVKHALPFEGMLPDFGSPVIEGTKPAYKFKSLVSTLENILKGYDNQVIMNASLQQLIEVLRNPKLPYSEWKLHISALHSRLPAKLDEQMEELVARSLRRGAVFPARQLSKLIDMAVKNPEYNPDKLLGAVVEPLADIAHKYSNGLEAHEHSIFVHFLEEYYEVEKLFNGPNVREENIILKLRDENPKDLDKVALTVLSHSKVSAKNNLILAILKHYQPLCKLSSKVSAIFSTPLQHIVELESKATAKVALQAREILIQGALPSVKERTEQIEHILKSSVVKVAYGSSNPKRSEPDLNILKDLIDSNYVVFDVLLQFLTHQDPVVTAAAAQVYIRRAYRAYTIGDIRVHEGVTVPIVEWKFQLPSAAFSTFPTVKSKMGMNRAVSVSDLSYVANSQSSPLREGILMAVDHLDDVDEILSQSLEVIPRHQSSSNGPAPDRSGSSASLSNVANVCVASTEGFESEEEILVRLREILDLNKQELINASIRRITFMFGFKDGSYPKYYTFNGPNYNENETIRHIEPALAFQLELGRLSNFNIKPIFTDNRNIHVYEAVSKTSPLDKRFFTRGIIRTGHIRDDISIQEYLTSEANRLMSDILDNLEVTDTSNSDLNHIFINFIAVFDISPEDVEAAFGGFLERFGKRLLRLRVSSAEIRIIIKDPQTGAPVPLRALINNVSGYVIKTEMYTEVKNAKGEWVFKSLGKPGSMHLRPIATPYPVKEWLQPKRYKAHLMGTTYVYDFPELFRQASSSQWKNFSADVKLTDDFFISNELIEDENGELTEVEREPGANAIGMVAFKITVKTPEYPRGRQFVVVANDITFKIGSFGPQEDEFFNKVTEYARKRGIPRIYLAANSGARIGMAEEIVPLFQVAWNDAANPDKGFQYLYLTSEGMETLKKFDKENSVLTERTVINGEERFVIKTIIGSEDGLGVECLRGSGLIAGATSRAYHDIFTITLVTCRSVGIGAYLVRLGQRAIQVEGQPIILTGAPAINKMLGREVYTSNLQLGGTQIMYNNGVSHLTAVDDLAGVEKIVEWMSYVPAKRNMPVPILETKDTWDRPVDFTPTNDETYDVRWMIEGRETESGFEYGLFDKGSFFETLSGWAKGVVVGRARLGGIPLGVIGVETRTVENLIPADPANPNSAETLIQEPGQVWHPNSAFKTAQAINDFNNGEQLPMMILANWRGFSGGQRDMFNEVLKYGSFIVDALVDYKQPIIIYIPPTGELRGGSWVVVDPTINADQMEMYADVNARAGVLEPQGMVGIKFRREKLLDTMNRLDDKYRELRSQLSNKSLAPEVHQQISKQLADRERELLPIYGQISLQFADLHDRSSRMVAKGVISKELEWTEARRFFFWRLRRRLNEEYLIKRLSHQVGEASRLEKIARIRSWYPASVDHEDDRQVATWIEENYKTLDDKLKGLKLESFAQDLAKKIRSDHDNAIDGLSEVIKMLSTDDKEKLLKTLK
# human (hACC2), sequence (O00763 whole entry): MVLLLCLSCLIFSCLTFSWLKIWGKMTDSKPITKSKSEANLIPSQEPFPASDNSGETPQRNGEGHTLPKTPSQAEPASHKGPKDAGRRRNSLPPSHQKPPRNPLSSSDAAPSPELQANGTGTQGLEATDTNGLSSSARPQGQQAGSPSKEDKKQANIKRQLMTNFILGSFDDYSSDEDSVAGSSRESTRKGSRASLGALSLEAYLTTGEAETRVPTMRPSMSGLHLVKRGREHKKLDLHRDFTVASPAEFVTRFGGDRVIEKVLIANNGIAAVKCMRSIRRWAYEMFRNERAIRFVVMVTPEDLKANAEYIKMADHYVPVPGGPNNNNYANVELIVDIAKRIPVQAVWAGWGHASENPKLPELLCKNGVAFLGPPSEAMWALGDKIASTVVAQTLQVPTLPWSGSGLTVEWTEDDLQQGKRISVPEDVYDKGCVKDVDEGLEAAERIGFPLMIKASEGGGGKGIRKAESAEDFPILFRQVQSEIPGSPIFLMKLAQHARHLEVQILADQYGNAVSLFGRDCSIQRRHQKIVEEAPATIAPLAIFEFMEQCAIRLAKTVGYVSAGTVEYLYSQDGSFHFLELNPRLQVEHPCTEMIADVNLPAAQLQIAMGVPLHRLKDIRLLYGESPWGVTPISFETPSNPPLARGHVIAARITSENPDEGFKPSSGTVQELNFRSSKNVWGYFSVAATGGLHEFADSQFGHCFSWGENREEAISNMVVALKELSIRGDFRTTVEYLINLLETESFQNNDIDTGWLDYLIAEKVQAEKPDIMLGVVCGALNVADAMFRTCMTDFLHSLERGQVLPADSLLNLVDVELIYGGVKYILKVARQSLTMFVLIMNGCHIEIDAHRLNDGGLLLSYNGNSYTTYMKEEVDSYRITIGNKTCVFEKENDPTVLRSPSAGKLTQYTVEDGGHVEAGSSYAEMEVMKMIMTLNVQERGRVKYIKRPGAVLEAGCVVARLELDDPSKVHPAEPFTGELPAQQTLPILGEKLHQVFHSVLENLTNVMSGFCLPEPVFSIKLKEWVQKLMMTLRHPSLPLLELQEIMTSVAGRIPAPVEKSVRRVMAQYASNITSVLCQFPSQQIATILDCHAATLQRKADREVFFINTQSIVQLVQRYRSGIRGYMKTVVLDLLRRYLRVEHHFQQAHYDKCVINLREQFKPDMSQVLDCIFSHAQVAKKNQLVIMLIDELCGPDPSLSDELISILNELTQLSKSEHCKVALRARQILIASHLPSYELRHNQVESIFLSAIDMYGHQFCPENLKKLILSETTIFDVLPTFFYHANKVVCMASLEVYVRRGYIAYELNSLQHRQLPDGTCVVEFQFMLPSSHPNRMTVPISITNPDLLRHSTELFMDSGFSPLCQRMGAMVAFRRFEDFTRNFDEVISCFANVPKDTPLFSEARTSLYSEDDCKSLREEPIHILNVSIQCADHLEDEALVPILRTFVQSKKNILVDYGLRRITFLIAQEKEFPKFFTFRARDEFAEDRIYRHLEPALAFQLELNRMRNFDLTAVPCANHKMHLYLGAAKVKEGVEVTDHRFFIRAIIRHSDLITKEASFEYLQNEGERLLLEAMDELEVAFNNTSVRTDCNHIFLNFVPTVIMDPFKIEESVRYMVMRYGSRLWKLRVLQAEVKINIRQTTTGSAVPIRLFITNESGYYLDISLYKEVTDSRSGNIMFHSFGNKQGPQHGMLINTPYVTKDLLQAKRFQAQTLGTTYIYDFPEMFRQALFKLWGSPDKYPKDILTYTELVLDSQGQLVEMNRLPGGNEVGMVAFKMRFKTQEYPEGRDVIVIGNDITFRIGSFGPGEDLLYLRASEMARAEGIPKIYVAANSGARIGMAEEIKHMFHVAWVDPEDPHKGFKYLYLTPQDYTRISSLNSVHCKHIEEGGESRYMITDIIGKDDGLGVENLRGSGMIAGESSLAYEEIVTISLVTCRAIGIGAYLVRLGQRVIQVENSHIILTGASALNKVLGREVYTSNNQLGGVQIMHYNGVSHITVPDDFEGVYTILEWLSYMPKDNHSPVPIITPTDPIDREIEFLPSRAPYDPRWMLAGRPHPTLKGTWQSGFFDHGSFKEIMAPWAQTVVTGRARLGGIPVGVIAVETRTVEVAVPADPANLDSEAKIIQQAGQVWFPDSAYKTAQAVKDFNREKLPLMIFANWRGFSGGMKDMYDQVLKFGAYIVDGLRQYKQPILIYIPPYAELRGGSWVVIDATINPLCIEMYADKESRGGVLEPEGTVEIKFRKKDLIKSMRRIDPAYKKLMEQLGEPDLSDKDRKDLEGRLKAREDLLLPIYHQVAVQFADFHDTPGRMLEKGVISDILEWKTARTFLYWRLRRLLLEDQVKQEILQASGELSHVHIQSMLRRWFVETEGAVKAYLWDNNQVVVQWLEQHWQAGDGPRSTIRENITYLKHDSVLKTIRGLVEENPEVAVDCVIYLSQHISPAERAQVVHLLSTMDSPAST
Structure (SMILES),"IC90 [1, 14]","MIC [2, 15]","MIC [2, 16]","IC90 [3, 17]","IC50 ([4]; Table 2b, additional results)","MIC [5, 18]",IC50 ([6]; Table 2a),"IC50 ([6]; Table 2b, additional results)","IC90 [1, 27]","MIC [2, 29]","IC90 [3, 30]",IC50 ([4]; Table 2a),"MIC [5, 32]","IC90 [7, 33]","MIC [8, 35]","IC90 [9, 36]","IC90 [10, 37]","IC90 [11, 38]","IC90 [12, 39]","IC90 [13, 40]",further results
COc1ccc(F)cc1[C@H](Cn1c(=O)n(C(C)(C)C(=O)NC(C)C)c(=O)c2c(C)c(-n3nccn3)sc21)OCC#N [Compound I-144],> 50 µg/mL,0.25 to 1 µg/mL,1.01 to 2 µg/mL,0.4 µg/mL,5 to 10 nM,0.25 to 1 µg/mL,1 to 5 nM,1 to 5 nM,,,,,,,,,,,,,"MIC [5, 19]: 0.25 to 1 µg/mL; IC90 [7, 20]: 0.08 µg/mL; MIC [8, 21]: 0.25 to 1 µg/mL; MIC [8, 22]: 1.01 to 2 µg/mL; IC90 [9]: 2 µg/mL; IC90 [10, 23]: > 50 µg/mL; IC90 [11, 24]: 0.4 µg/mL; IC90 [12, 25]: 0.4 µg/mL; IC90 [13, 26]: 0.4 µg/mL"
COc1ccc(F)cc1[C@H](Cn1c(=O)n(C(C)(C)C(=O)NC(C)C)c(=O)c2c(C)c(-n3nccn3)sc21)OC[C@@H](C)C#N [Compound I-150],,,,,1 to 5 nM,,0.4 to 1 nM,0.3 to 1 nM,> 50 µg/mL,0.25 to 1 µg/mL,0.4 µg/mL,1 to 5 nM,0.25 to 1 µg/mL,0.08 µg/mL,0.25 to 1 µg/mL,0.08 µg/mL,> 50 µg/mL,0.08 µg/mL,0.08 µg/mL,0.4 µg/mL,"MIC [2, 28]: 0.25 to 1 µg/mL; MIC [5, 31]: 0.25 to 1 µg/mL; MIC [8, 34]: 0.25 to 1 µg/mL"
COc1ccc(F)cc1[C@H](Cn1c(=O)n(C(C)(C)C(=O)NC(C)C)c(=O)c2c(C)c(-n3nccn3)sc21)OC[C@H](C)C#N [Compound I-151],,,,,1 to 5 nM,,0.4 to 1 nM,0.3 to 1 nM,> 50 µg/mL,0.25 to 1 µg/mL,0.4 µg/mL,5 to 10 nM,0.25 to 1 µg/mL,0.08 µg/mL,0.25 to 1 µg/mL,0.08 µg/mL,> 50 µg/mL,0.08 µg/mL,0.08 µg/mL,0.4 µg/mL,"MIC [2, 28]: 0.25 to 1 µg/mL; MIC [5, 31]: 0.25 to 1 µg/mL; MIC [8, 34]: 0.25 to 1 µg/mL"
COc1ccc(F)cc1[C@H](Cn1c(=O)n(C(C)(C)C(=O)NC(C)C)c(=O)c2c(C)c(-n3nccn3)sc21)OCC(C)(C)C#N [Compound I-154],> 50 µg/mL,0.25 to 1 µg/mL,0.25 to 1 µg/mL,0.4 µg/mL,5 to 10 nM,0.25 to 1 µg/mL,1 to 5 nM,1 to 5 nM,,,,5 to 10 nM,,,,,,,,,"MIC [5, 19]: 0.25 to 1 µg/mL; IC90 [7, 20]: 0.08 µg/mL; MIC [8, 21]: 0.25 to 1 µg/mL; MIC [8, 22]: 1.01 to 2 µg/mL; IC90 [9]: 0.08 µg/mL; IC90 [10, 23]: > 50 µg/mL; IC90 [11, 24]: 0.08 µg/mL; IC90 [12, 25]: 0.4 µg/mL; IC90 [13, 26]: 0.4 µg/mL"
COc1ccc(F)cc1[C@H](Cn1c(=O)n([C@H](C)C(=O)N2CCCC2)c(=O)c2c(C)c(-n3nccn3)sc21)OCCC#N [Compound I-187],,,,,1 to 5 nM,,,1 to 5 nM,> 50 µg/mL,2.01 to 4 µg/mL,0.4 µg/mL,,2.01 to 4 µg/mL,0.4 µg/mL,1.01 to 2 µg/mL,0.08 µg/mL,> 50 µg/mL,2 µg/mL,2 µg/mL,0.4 µg/mL,
